From patent US20230136297A1, “Methods Of Treating Fabry Disease In Patients Having A Mutation In The GLA Gene” (Amicus Therapeutics, Inc., priority 2020, published 2023)
Positions count from the first letter of the chain named.

Assays:
Test in all cases: α-Gal A activity in lysates of transfected HEK-293 cells ± migalastat (HEK assay)
Format in all cases: cell-based
[1] = target: T1, α-Gal A mutant form N419D (Homo sapiens, UniProt P06280, N419D)
T1 construct: expressed in transfected cells; host or cells: HEK-293
T1 sequence (P06280 32-429 N419D): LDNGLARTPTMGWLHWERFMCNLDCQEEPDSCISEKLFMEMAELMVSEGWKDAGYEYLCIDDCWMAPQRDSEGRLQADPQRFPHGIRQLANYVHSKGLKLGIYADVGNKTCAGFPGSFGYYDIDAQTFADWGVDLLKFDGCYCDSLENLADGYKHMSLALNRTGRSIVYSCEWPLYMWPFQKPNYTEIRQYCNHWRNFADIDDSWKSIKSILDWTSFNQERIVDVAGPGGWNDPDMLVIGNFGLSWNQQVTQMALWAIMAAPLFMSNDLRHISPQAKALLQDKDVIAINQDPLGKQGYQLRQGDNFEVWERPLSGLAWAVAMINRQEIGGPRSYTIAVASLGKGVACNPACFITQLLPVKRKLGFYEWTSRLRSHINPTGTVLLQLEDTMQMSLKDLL
Method in brief: (§1)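 Activity is reported as nmol of free 4-MU released per mg protein per hour (nmol/mg/hr).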

[2] = target: T2, α-Gal A mutant form G375A (Homo sapiens, UniProt P06280, G375A)
T2 construct: expressed in transfected cells; host or cells: HEK-293
T2 sequence (P06280 32-429 G375A): T1 sequence (P06280 32-429 N419D) with G344A, D388N
Method in brief: as §1

[3] = target: T3, α-Gal A mutant form S276T (Homo sapiens, UniProt P06280, S276T)
T3 construct: expressed in transfected cells; host or cells: HEK-293
T3 sequence (P06280 32-429 S276T): T1 sequence (P06280 32-429 N419D) with S245T, D388N
Method in brief: as §1

[4] = target: T4, α-Gal A mutant form L310V (Homo sapiens, UniProt P06280, L310V)
T4 construct: expressed in transfected cells; host or cells: HEK-293
T4 sequence (P06280 32-429 L310V): T1 sequence (P06280 32-429 N419D) with L279V, D388N
Method in brief: as §1

[5] = target: T5, α-Gal A mutant form A160D (Homo sapiens, UniProt P06280, A160D)
T5 construct: expressed in transfected cells; host or cells: HEK-293
T5 sequence (P06280 32-429 A160D): T1 sequence (P06280 32-429 N419D) with A129D, D388N
Method in brief: as §1

[6] = 10 μM migalastat minus baseline
[7] = HEK-293 lysates, 10 μM migalastat 5 days, mean ± SEM

In the case of OC[C@H]1NC[C@H](O)[C@@H](O)[C@H]1O [migalastat, (2R,3S,4R,5S)-2-(hydroxymethyl) piperdine-3,4,5-triol], the “Absolute increase (% WT)” value [1, 6] is reported as 12.6 % WT, the Relative increase ([1]; 10 μM migalastat ÷ baseline) is reported as 1.37 and the “10 μM migalastat α-Gal A activity” value [1, 7] is reported as 14558 ± 678 nmol/mg/h. For the same compound, the “10 μM migalastat α-Gal A activity (% WT)” value [1, 7] was 44.1 ± 2.9 % WT, the “Absolute increase (% WT)” value [2, 6] was 12 % WT and the Relative increase ([2]; 10 μM migalastat ÷ baseline) was 1.23. The “10 μM migalastat α-Gal A activity” value [2, 7] was 24212 ± 1520 nmol/mg/h, the “10 μM migalastat α-Gal A activity (% WT)” value [2, 7] was 66.8 ± 2.4 % WT and the “Absolute increase (% WT)” value [3, 6] was 8.3 % WT. For the same compound, the Relative increase ([3]; 10 μM migalastat ÷ baseline) was 7.5, the “10 μM migalastat α-Gal A activity” value [3, 7] was 4104 ± 439 nmol/mg/h and the “10 μM migalastat α-Gal A activity (% WT)” value [3, 7] was 9.6 ± 0.9 % WT. For the same compound, the “Absolute increase (% WT)” value [4, 6] was 22.8 % WT, the Relative increase ([4]; 10 μM migalastat ÷ baseline) was 1.37 and the “10 μM migalastat α-Gal A activity” value [4, 7] was 31936 ± 2527 nmol/mg/h. The “10 μM migalastat α-Gal A activity (% WT)” value [4, 7] was 78.4 ± 4.8 % WT, the “Absolute increase (% WT)” value [5, 6] was 25.9 % WT and the Relative increase ([5]; 10 μM migalastat ÷ baseline) was 1.83. For the same compound, the “10 μM migalastat α-Gal A activity” value [5, 7] was 18238 ± 1048 nmol/mg/h and the “10 μM migalastat α-Gal A activity (% WT)” value [5, 7] was 56 ± 4.1 % WT.
